Reference: ChEMBL document CHEMBL3421620, “A facile synthesis of novel miconazole analogues and the evaluation of their antifungal activity” (2015)
Converted amounts (≈) assume the structure as drawn. Each block holds one compound with its values, some of them ahead of it.

Experiments:
Format in all cases: functional
[1] = Antifungal activity against Trichosporon cutaneum ATCC 28592 by broth microdilution method; settings: Cutaneotrichosporon cutaneum
[2] = system: Candida albicans; assay: Antifungal activity against Candida albicans Strain 23 by broth microdilution method
[3] = system: Mucor hiemalis; assay: Antifungal activity against Mucor hiemalis ATCC 8690 by broth microdilution method
[4] = system: Candida albicans; assay: Antifungal activity against Candida albicans Strain 9 by broth microdilution method
[5] = system: Candida albicans; assay: Antifungal activity against Candida albicans Strain 25 by broth microdilution method
[6] = system: Candida albicans; assay: Antifungal activity against Candida albicans Strain 11 by broth microdilution method
[7] = system: Candida albicans; assay: Antifungal activity against Candida albicans Strain 14 by broth microdilution method
[8] = system: Candida albicans; assay: Antifungal activity against Candida albicans Strain 24 by broth microdilution method
[9] = system: Candida albicans; assay: Antifungal activity against Candida albicans Strain 12 by broth microdilution method
[10] = system: Candida albicans; assay: Antifungal activity against Candida albicans Strain 29 by broth microdilution method
[11] = system: Candida albicans; assay: Antifungal activity against Candida albicans Strain 27 by broth microdilution method
[12] = system: Candida albicans; assay: Antifungal activity against Candida albicans Strain 1 by broth microdilution method
[13] = system: Candida albicans; assay: Antifungal activity against Candida albicans Strain 6 by broth microdilution method
[14] = system: Candida albicans; assay: Antifungal activity against Candida albicans Strain 28 by broth microdilution method
[15] = system: Candida albicans; assay: Antifungal activity against Candida albicans Strain 7 by broth microdilution method
[16] = system: Kluyveromyces marxianus; assay: Antifungal activity against Candida pseudotropicalis by broth microdilution method
[17] = system: Pichia kudriavzevii; assay: Antifungal activity against Candida krusei by broth microdilution method
[18] = system: Candida albicans; assay: Antifungal activity against Candida albicans Strain 13 by broth microdilution method
[19] = system: Candida parapsilosis; assay: Antifungal activity against Candida parapsilosis by broth microdilution method; settings: Lodderomyces parapsilosis
[20] = system: Candida albicans; assay: Antifungal activity against Candida albicans Strain 3 by broth microdilution method
[21] = system: Candida tropicalis; assay: Antifungal activity against Candida tropicalis ATCC 13803 by broth microdilution method
[22] = system: Candida albicans; assay: Antifungal activity against Candida albicans Strain 5 by broth microdilution method
[23] = system: Yarrowia lipolytica; assay: Antifungal activity against Candida lipolytica by broth microdilution method
[24] = system: Candida albicans; assay: Antifungal activity against Candida albicans Strain 10 by broth microdilution method
[25] = system: Candida albicans; assay: Antifungal activity against Candida albicans Strain 15 by broth microdilution method
[26] = system: Candida albicans; assay: Antifungal activity against Candida albicans Strain 26 by broth microdilution method
[27] = system: Candida albicans; assay: Antifungal activity against Candida albicans Strain 21 by broth microdilution method
[28] = system: Candida albicans; assay: Antifungal activity against Candida albicans Strain 22 by broth microdilution method
[29] = system: Candida albicans; assay: Antifungal activity against Candida albicans Strain 20 by broth microdilution method
[30] = system: Candida albicans; assay: Antifungal activity against Candida albicans Strain 19 by broth microdilution method
[31] = system: Cyberlindnera jadinii; assay: Antifungal activity against Candida utilis ATCC 9226 by broth microdilution method; settings: Williopsis jadinii
[32] = system: Candida albicans; assay: Antifungal activity against Candida albicans Strain 4 by broth microdilution method
[33] = system: Candida albicans; assay: Antifungal activity against Candida albicans Strain 17 by broth microdilution method
[34] = system: Candida albicans; assay: Antifungal activity against Candida albicans ATCC 10231 by broth microdilution method
[35] = system: Rhizopus arrhizus; assay: Antifungal activity against Rhizopus oryzae ATCC 10329 by broth microdilution method
[36] = system: Candida albicans; assay: Antifungal activity against Candida albicans Strain 16 by broth microdilution method
[37] = system: Candida albicans; assay: Antifungal activity against Candida albicans Strain 2 by broth microdilution method
[38] = system: Candida albicans; assay: Antifungal activity against Candida albicans Strain 18 by broth microdilution method
[39] = system: Nakaseomyces glabratus; assay: Antifungal activity against Candida glabrata by broth microdilution method
[40] = system: Aspergillus fumigatus; assay: Antifungal activity against Aspergillus fumigatus 16907 by broth microdilution method
[41] = system: Candida albicans; assay: Antifungal activity against Candida albicans Strain 8 by broth microdilution method

Structure (SMILES): CCC(C)n1ncn(-c2ccc(N3CCN(c4ccc(OCC5COC(Cn6cncn6)(c6ccc(Cl)cc6Cl)O5)cc4)CC3)cc2)c1=O (configuration not stated) [ITRACONAZOLE]
- MIC [1]: 8 µg/mL (≈ 11.3 µM)
- MIC [2]: 0.06 µg/mL (≈ 0.085 µM)
- MIC [3]: > 16 µg/mL
- MIC [4]: 0.12 µg/mL (≈ 0.17 µM)
- MIC [5]: 0.12 µg/mL (≈ 0.17 µM)
- MIC [6]: 0.06 µg/mL (≈ 0.085 µM)
- MIC [7]: 0.06 µg/mL (≈ 0.085 µM)
- MIC [8]: 0.03 µg/mL (≈ 0.0425 µM)
- MIC [9]: 0.12 µg/mL (≈ 0.17 µM)
- MIC [10]: 0.12 µg/mL (≈ 0.17 µM)
- MIC [11]: 0.06 µg/mL (≈ 0.085 µM)
- MIC [12]: 0.06 µg/mL (≈ 0.085 µM)
- MIC [13]: 0.06 µg/mL (≈ 0.085 µM)
- MIC [14]: 0.03 µg/mL (≈ 0.0425 µM)
- MIC [15]: 0.06 µg/mL (≈ 0.085 µM)
- MIC [16]: 0.25 µg/mL (≈ 0.354 µM)
- MIC [17]: 1 µg/mL (≈ 1.42 µM)
- MIC [18]: 0.06 µg/mL (≈ 0.085 µM)
- MIC [19]: 0.25 µg/mL (≈ 0.354 µM)
- MIC [20]: 0.03 µg/mL (≈ 0.0425 µM)
- MIC [21]: 0.06 µg/mL (≈ 0.085 µM)
- MIC [22]: 0.06 µg/mL (≈ 0.085 µM)
- MIC [23]: 0.12 µg/mL (≈ 0.17 µM)
- MIC [24]: 0.06 µg/mL (≈ 0.085 µM)
- MIC [25]: 0.06 µg/mL (≈ 0.085 µM)
- MIC [26]: 0.12 µg/mL (≈ 0.17 µM)
- MIC [27]: 0.12 µg/mL (≈ 0.17 µM)
- MIC [28]: 0.03 µg/mL (≈ 0.0425 µM)
- MIC [29]: 0.06 µg/mL (≈ 0.085 µM)
- MIC [30]: 0.06 µg/mL (≈ 0.085 µM)
- MIC [31]: 0.5 µg/mL (≈ 0.709 µM)
- MIC [32]: 0.03 µg/mL (≈ 0.0425 µM)
- MIC [33]: 0.12 µg/mL (≈ 0.17 µM)
- MIC [34]: 0.06 µg/mL (≈ 0.085 µM)
- MIC [35]: > 16 µg/mL
- MIC [36]: 0.06 µg/mL (≈ 0.085 µM)
- MIC [37]: 0.06 µg/mL (≈ 0.085 µM)
- MIC [38]: 0.03 µg/mL (≈ 0.0425 µM)
- MIC [39]: 0.25 µg/mL (≈ 0.354 µM)
- MIC [40]: 1 µg/mL (≈ 1.42 µM)
- MIC [41]: 0.03 µg/mL (≈ 0.0425 µM)

- MIC [1]: > 16 µg/mL
- MIC [2]: 0.12 µg/mL (≈ 0.282 µM)
- MIC [3]: > 16 µg/mL
- MIC [4]: 0.5 µg/mL (≈ 1.17 µM)
- MIC [5]: 0.25 µg/mL (≈ 0.587 µM)
- MIC [6]: 0.25 µg/mL (≈ 0.587 µM)
- MIC [7]: 0.12 µg/mL (≈ 0.282 µM)
- MIC [8]: 0.12 µg/mL (≈ 0.282 µM)
- MIC [9]: 0.25 µg/mL (≈ 0.587 µM)
- MIC [10]: 0.5 µg/mL (≈ 1.17 µM)
- MIC [11]: 0.25 µg/mL (≈ 0.587 µM)
- MIC [12]: 0.25 µg/mL (≈ 0.587 µM)
- MIC [13]: 0.12 µg/mL (≈ 0.282 µM)
- MIC [14]: 0.5 µg/mL (≈ 1.17 µM)
- MIC [15]: 0.25 µg/mL (≈ 0.587 µM)
- MIC [16]: 1 µg/mL (≈ 2.35 µM)
- MIC [17]: 0.5 µg/mL (≈ 1.17 µM)
- MIC [18]: 0.25 µg/mL (≈ 0.587 µM)
- MIC [19]: 1 µg/mL (≈ 2.35 µM)
- MIC [20]: 0.12 µg/mL (≈ 0.282 µM)
- MIC [21]: 0.5 µg/mL (≈ 1.17 µM)
- MIC [22]: 0.25 µg/mL (≈ 0.587 µM)
- MIC [23]: 1 µg/mL (≈ 2.35 µM)
- MIC [24]: 0.25 µg/mL (≈ 0.587 µM)
- MIC [25]: 0.5 µg/mL (≈ 1.17 µM)
- MIC [26]: 0.25 µg/mL (≈ 0.587 µM)
- MIC [27]: 0.5 µg/mL (≈ 1.17 µM)
- MIC [28]: 0.12 µg/mL (≈ 0.282 µM)
- MIC [29]: 0.12 µg/mL (≈ 0.282 µM)
- MIC [30]: 0.25 µg/mL (≈ 0.587 µM)
- MIC [31]: 0.5 µg/mL (≈ 1.17 µM)
- MIC [32]: 0.25 µg/mL (≈ 0.587 µM)
- MIC [33]: 0.25 µg/mL (≈ 0.587 µM)
- MIC [34]: 0.06 µg/mL (≈ 0.141 µM)
- MIC [35]: > 16 µg/mL
- MIC [36]: 0.25 µg/mL (≈ 0.587 µM)
- MIC [37]: 0.25 µg/mL (≈ 0.587 µM)
- MIC [38]: 0.12 µg/mL (≈ 0.282 µM)
- MIC [39]: 1 µg/mL (≈ 2.35 µM)
- MIC [40]: 8 µg/mL (≈ 18.8 µM)
- MIC [41]: 0.5 µg/mL (≈ 1.17 µM)
Structure (SMILES): O=C(O)C(OC(Cn1ccnc1)c1ccc(Cl)cc1Cl)c1ccccc1Cl (configuration not stated)
